# Patent US11691949B2, “Quinoline sulfonamide compounds and their use as antibacterial agents” (OTAGO INNOVATION LIMITED, priority 2017, dated 2023)
# Counter-ions that a name gives are not always drawn. Like-named read-outs stand apart in the source and are kept apart here.
# Key:
# Assay type in all cases: cell-based
# [1] = tested on: S. uberis ATCC 19436; assay: MIC by broth microdilution, S. uberis; conditions: Streptococcus uberis
# Summary of the method: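 This broth microdilution assay used S. uberis ATCC 19436 in Todd Hewitt Broth, with zinc sulphate heptahydrate added where required to a final 50 μM. Inhibitor concentration ranges came from two-fold serial dilutions in 96-well flat bottom plates at 200 μl. Approximately 5×10^5 cfu/mL cells were incubated for 24 h at 37° C. and 200 rpm. Wells were then read at OD600 on a Varioskan Flash reader.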
# [2] = tested on: S. aureus ATCC 6538; assay: MIC by broth microdilution, S. aureus; conditions: Staphylococcus aureus
# Summary of the method: (§1)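 Media: TSB or CAMHB for S. aureus, LB or CAMHB for E. coli, with zinc sulphate to 50 μM final where required. Cells at ~5×10^5 cfu/mL met two-fold compound series; growth was scored by OD600 after 24 h shaking at 37° C.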
# [3] = tested on: E. coli ATCC 10596; assay: MIC by broth microdilution, E. coli; conditions: Escherichia coli
# Summary of the method: as §1
# [4] = tested on: S. uberis ATCC 19436; assay: MBC by Miles-Misra drop-plate method, S. uberis; conditions: Streptococcus uberis
# Description: (§2) Antibacterial susceptibility testing was performed in triplicate (biological) by measuring minimum inhibitory concentrations (MICs) by broth microdilution in 96-well flat bottom microtiter plates (ThermoFisher Scientific, New Zealand). S. uberis ATCC 19436, S. aureus ATCC 6538, or E. coli ATCC 10596 cells grown overnight were diluted to an OD600 of approximately 0.025, so that the final concentration of cells in the MIC assay was approximately 5×10^5 cfu/mL in media as follows: S. uberis; Todd Hewitt Broth (THB), S. aureus; Tryptic Soy Broth (TSB) and Cation Adjusted Muller Hinton Broth (CAMHB), and E. coli; Lysogeny Borth (LB) and CAMHB, before being dispensed into microtiter wells. As required additional sterile Zinc Sulphate (Heptahydrate) was supplemented into the media, so the final concentration was 50 μM. Test compounds were added to starting wells and two-fold serial dilutions were undertaken to generate a range of inhibitor concentrations at a final volume of 200 μl. Media and test compound-free (untreated) controls were included in each microtiter plate in triplicate. After 24 h incubation at 37° C. and 200 rpm, the OD600 of wells were read using a Varioskan Flash plate reader (ThermoFisher Scientific, New Zealand). The MIC was reported as the lowest concentration of the test compound for which no growth occurred, as determined by OD600 readings. The minimum bactericidal concentration (MBC) was determined using the Miles-Misra drop-plate method to measure the viability of cells in response to test compound challenge.
# [5] = tested on: S. aureus ATCC 6538; assay: MBC by Miles-Misra drop-plate method, S. aureus; conditions: Staphylococcus aureus
# Description: as §2
# [6] = tested on: E. coli ATCC 10536; assay: MBC by Miles-Misra drop-plate method, E. coli; conditions: Escherichia coli
# Description: as §2
# [7] = ATCC19436, No Zinc, read-out: S. uberis ATCC 19436 MIC
# [8] = ATCC19436, Zinc (50 μM), read-out: S. uberis ATCC 19436 MIC
# [9] = ATCC6538, No Zinc, read-out: S. aureus ATCC 6538 MIC
# [10] = ATCC6538, Zinc (50 μM), read-out: S. aureus ATCC 6538 MIC
# [11] = ATCC 10536 / ATCC 10596, No Zinc, read-out: E. coli ATCC 10536 MIC
# [12] = ATCC 10536 / ATCC 10596, Zinc (50 μM), read-out: E. coli ATCC 10536 MIC
# [13] = ATCC19436, read-out: S. uberis ATCC 19436 MBC, No Zinc
# [14] = ATCC19436, read-out: S. uberis ATCC 19436 MBC, Zinc (50 μM)
# [15] = ATCC6538, read-out: S. aureus ATCC 6538 MBC, No Zinc
# [16] = ATCC6538, read-out: S. aureus ATCC 6538 MBC, Zinc (50 μM)
# [17] = ATCC10536, read-out: E. coli ATCC 10536 MBC, No Zinc
# [18] = ATCC10536, read-out: E. coli ATCC 10536 MBC, Zinc (50 μM)
# [19] = ATCC19436, No Zinc, read-out: S. uberis ATCC 19436 MBC
# [20] = ATCC19436, Zinc (50 μM), read-out: S. uberis ATCC 19436 MBC
# [21] = ATCC6538, No Zinc, read-out: S. aureus ATCC 6538 MBC
# [22] = ATCC6538, Zinc (50 μM), read-out: S. aureus ATCC 6538 MBC
# [23] = ATCC10536, No Zinc, read-out: E. coli ATCC 10536 MBC
# [24] = ATCC10536, Zinc (50 μM), read-out: E. coli ATCC 10536 MBC
Structure (SMILES),"MIC [1, 7] [µg/mL]","MIC [1, 8] [µg/mL]","MIC [2, 9] [µg/mL]","MIC [2, 10] [µg/mL]","MIC [3, 11] [µg/mL]","MIC [3, 12] [µg/mL]","MBC [4, 13] [µg/mL]","MBC [4, 14] [µg/mL]","MBC [5, 15] [µg/mL]","MBC [5, 16] [µg/mL]","MBC [6, 17] [µg/mL]","MBC [6, 18] [µg/mL]","MBC [4, 19] [µg/mL]","MBC [4, 20] [µg/mL]","MBC [5, 21] [µg/mL]","MBC [5, 22] [µg/mL]","MBC [6, 23] [µg/mL]","MBC [6, 24] [µg/mL]",further results
"O=C(N/N=C/c1ccc2cccc(NS(=O)(=O)c3ccc(C(F)(F)F)cc3)c2n1)C1CCCNC1 (mixture of isomers) [ZDR124, (E/Z)—N-(2-((2-(Piperidine-3-carbonyl)hydrazineylidene)methyl)quinolin-8-yl)-4-(trifluoromethyl)benzenesulfonamide trifluoroacetate]",32,16,16,16,128,32,16,16,> 256,> 256,128,32,–,–,–,–,–,–,–
"CN(C)Cc1ccc2cccc(NS(=O)(=O)c3ccc(C(F)(F)F)cc3)c2n1.Cl [ZDR022-HCl, N-(2-((Dimethylamino)methyl)quinolin-8-yl)-4-(trifluoromethyl)-benzenesulfonamide HCl]",256,0.125,64,4,> 256,> 256,–,–,–,–,–,–,> 256,0.125,128,256,> 256,> 256,–
"CN(C)CCCNCc1ccc2cccc(NS(=O)(=O)c3ccc(C(F)(F)F)cc3)c2n1 [ZDR090, N-(2-(((3-(Dimethylamino)propyl)amino)methyl)quinolin-8-yl)-4-(trifluoromethyl)benzenesulfonamide di-trifluoroacetate]",–,–,–,–,–,–,8,0.5,16,32,16,16,–,–,–,–,–,–,"MIC ([1]; ATCC19436, read-out: S. uberis ATCC 19436 MIC, No Zinc): 4 µg/mL; MIC ([1]; ATCC19436, read-out: S. uberis ATCC 19436 MIC, Zinc (50 μM)): 0.5 µg/mL; MIC ([2]; ATCC6538, read-out: S. aureus ATCC 6538 MIC, No Zinc): 16 µg/mL; MIC ([2]; ATCC6538, read-out: S. aureus ATCC 6538 MIC, Zinc (50 μM)): 16 µg/mL; MIC ([3]; ATCC 10536 / ATCC 10596, read-out: E. coli ATCC 10536 MIC, No Zinc): 16 µg/mL; MIC ([3]; ATCC 10536 / ATCC 10596, read-out: E. coli ATCC 10536 MIC, Zinc (50 μM)): 16 µg/mL"

# The next lines start with results.
"MIC [1, 7] [µg/mL]","MIC [1, 8] [µg/mL]","MIC [2, 9] [µg/mL]","MIC [2, 10] [µg/mL]","MIC [3, 11] [µg/mL]","MIC [3, 12] [µg/mL]",Structure (SMILES),"MBC [4, 13] [µg/mL]","MBC [4, 14] [µg/mL]","MBC [5, 15] [µg/mL]","MBC [5, 16] [µg/mL]","MBC [6, 17] [µg/mL]","MBC [6, 18] [µg/mL]","MBC [4, 19] [µg/mL]","MBC [4, 20] [µg/mL]","MBC [5, 21] [µg/mL]","MBC [5, 22] [µg/mL]","MBC [6, 23] [µg/mL]","MBC [6, 24] [µg/mL]",further results
32,0.125,64,32,256,256,"O=S(=O)(Nc1cccc2ccc(CNCCCO)nc12)c1ccc(C(F)(F)F)cc1 [ZDR091, N-(2-(((3-Hydroxypropyl)amino)methyl)quinolin-8-yl)-4-(trifluoromethyl)benzenesulfonamide]",–,–,–,–,–,–,16,0.5,> 256,128,256,128,–
64,16,32,32,> 256,> 256,"O=S(=O)(Nc1cccc2ccc(CNC(CO)CO)nc12)c1ccc(C(F)(F)F)cc1 [ZDR092, N-(2-(((1,3-Dihydroxypropan-2-yl)amino)methyl)quinolin-8-yl)-4-(trifluoromethyl)benzenesulfonamide]",–,–,–,–,–,–,64,8,256,32,256,> 256,–
